This assay deals with c-KIT (Homo sapiens, UniProt P10721). The experiment in a line: c-KIT ADP-Glo biochemical assay. The protocol: The inhibitory activity against c-KIT was measured using ADP-Glo assay. The percent (%) inhibition at each concentration of compound is calculated based on and relative to the luminescence signal in the Max and Min control wells contained within each assay plate. The Max control wells contain enzyme and substrate as 0% inhibition, and the Min control wells only contain substrate without enzyme as 100% inhibition. The concentrations and % inhibition values for tested compounds are plotted and the concentration of compound required for 50% inhibition (IC50) is determined with a four-parameter logistic dose response equation. The ability of the compounds in Table 1 to inhibit c-KIT was determined.
On the technique in general: ADP-Glo first removes unused ATP, then detects ADP through luciferase.

Chain of c-KIT (P10721 26-976): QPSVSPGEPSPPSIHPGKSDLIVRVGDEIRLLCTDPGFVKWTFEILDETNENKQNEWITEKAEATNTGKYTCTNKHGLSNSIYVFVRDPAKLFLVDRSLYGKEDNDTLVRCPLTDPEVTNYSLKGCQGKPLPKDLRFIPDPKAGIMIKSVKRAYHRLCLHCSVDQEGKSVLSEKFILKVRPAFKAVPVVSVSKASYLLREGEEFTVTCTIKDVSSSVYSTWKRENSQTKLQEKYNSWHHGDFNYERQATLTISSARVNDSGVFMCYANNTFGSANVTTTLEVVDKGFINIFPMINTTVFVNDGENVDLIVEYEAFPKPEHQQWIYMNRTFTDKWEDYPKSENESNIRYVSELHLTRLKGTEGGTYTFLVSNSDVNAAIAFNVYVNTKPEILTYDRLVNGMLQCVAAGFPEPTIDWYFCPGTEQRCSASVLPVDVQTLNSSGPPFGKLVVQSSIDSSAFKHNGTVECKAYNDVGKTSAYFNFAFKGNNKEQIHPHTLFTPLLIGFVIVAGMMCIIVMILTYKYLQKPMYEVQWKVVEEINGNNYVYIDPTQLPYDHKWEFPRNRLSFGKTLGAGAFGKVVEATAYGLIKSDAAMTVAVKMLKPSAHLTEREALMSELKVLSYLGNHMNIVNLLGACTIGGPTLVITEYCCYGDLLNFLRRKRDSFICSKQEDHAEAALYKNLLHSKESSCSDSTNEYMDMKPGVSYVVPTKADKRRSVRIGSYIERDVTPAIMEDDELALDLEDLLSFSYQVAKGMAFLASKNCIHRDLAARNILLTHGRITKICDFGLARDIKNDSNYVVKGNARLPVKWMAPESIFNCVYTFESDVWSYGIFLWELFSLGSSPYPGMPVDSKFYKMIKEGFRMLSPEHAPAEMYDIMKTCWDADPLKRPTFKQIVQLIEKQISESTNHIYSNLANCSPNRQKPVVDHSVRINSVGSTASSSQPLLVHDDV

For `Cc1c(F)cc(-c2noc([C@H]3C[C@@H]3F)n2)cc1NC(=O)c1cnc2ccc(N3CCN(C)CC3)cn12` (racemic) [Compound C034, N-(3-fluoro-5-(5-((1R,2S)-2-fluorocyclopropyl)-1,2,4-oxadiazol-3-yl)-2-methylphenyl)-6-(4-methylpiperazin-1-yl)imidazo[1,2-a]pyridine-3-carboxamide], the concentration for half-maximal inhibition (IC50) (as a rule, the concentration needed to halve the response being measured) (class ranges) lay in the range of 100 to 1000 nM. The same measure, in the same setting: as for `COC(=O)N1CC(c2nc(-c3cc(F)c(C)c(NC(=O)c4cnc5ccccn45)c3F)no2)C1` [Compound C052, methyl 3-(3-(2,5-difluoro-3-(imidazo[1,2-a]pyridine-3-carboxamido)-4-methylphenyl)-1,2,4-oxadiazol-5-yl)azetidine-1-carboxylate], the figure is no more than 100 nM; as for `COC(=O)N1CC(c2nnc(-c3cc(F)c(C)c(NC(=O)c4cnc5ccccn45)c3)[nH]2)C1` [Compound C048, methyl 3-(5-(3-fluoro-5-(imidazo[1,2-a]pyridine-3-carboxamido)-4-methylphenyl)-4H-1,2,4-triazol-3-yl)azetidine-1-carboxylate], 100 to 1000 nM. On the same count and under the same terms, as for `COC(=O)N1CCC[C@@H](c2nc(-c3cc(F)c(C)c(NC(=O)c4cnc5ccccn45)c3F)no2)C1` [Compound C054, methyl (R)-3-(3-(2,5-difluoro-3-(imidazo[1,2-a]pyridine-3-carboxamido)-4-methylphenyl)-1,2,4-oxadiazol-5-yl)piperidine-1-carboxylate], the figure is 100 to 1000 nM.

Compound `Cc1c(F)cc(-c2noc(C3CC(F)(F)C3)n2)cc1NC(=O)c1cnc2cc(N3CCOCC3)ccn12` [Compound C013, N-(5-(5-(3,3-difluorocyclobutyl)-1,2,4-oxadiazol-3-yl)-3-fluoro-2-methylphenyl)-7-morpholinoimidazo[1,2-a]pyridine-3-carboxamide] gave a 50% inhibitory concentration (IC50) (class ranges) of 100 to 1000 nM. The same measure, in the same setting: as for `CC(=O)N1CCN(c2ccc3ncc(C(=O)Nc4cc(-c5noc([C@H]6C[C@@H]6F)n5)cc(F)c4C)n3c2)CC1` (racemic) [Compound C039, 6-(4-acetylpiperazin-1-yl)-N-(3-fluoro-5-(5-((1R,2S)-2-fluorocyclopropyl)-1,2,4-oxadiazol-3-yl)-2-methylphenyl)imidazo[1,2-a]pyridine-3-carboxamide], the figure is no more than 100 nM. Regarding `COC(=O)N1CC(c2nc(-c3cc(F)c(C)c(NC(=O)c4cnc5ccccn45)c3)no2)C1` [Compound C003, methyl 3-(3-(3-fluoro-5-(imidazo[1,2-a]pyridine-3-carboxamido)-4-methylphenyl)-1,2,4-oxadiazol-5-yl)azetidine-1-carboxylate], the IC50 runs as follows: (class ranges) no more than 100 nM; (comparison of prior art compounds (WO 2013/033167) with example 3 (C003)) 43 nM. Regarding `COC(=O)N1CC(c2nc(-c3cc(F)c(C)c(NC(=O)c4cnc5ccc(N6CCN(C(C)=O)CC6)cn45)c3)no2)C1` [Compound C036, methyl 3-(3-(3-(6-(4-acetylpiperazin-1-yl)imidazo[1,2-a]pyridine-3-carboxamido)-5-fluoro-4-methylphenyl)-1,2,4-oxadiazol-5-yl)azetidine-1-carboxylate], under “class ranges”, the half-maximal inhibitory concentration (IC50) was no more than 100 nM.

Turning to `Cc1c(F)cc(-c2noc([C@H]3C[C@@H]3F)n2)cc1NC(=O)c1cnc2ccc(N3CCOCC3)cn12` (racemic) [Compound C008, N-(3-fluoro-5-(5-((1R,2S)-2-fluorocyclopropyl)-1,2,4-oxadiazol-3-yl)-2-methylphenyl)-6-morpholinoimidazo[1,2-a]pyridine-3-carboxamide], the half-maximal inhibitory concentration (IC50) (class ranges) fell in the range of 1000 to 20000 nM. The compound `COC(=O)N1CC(c2nc(-c3cc(F)c(C)c(NC(=O)c4cnc5cc(C(N)=O)ccn45)c3)no2)C1` [Compound C043, methyl 3-(3-(3-(7-carbamoylimidazo[1,2-a]pyridine-3-carboxamido)-5-fluoro-4-methylphenyl)-1,2,4-oxadiazol-5-yl)azetidine-1-carboxylate] gave an IC50 (class ranges) of no more than 100 nM. As for `Cc1c(F)cc(-c2noc(C3CC(F)(F)C3)n2)cc1NC(=O)c1cnn2ccccc12` [Compound C004, N-(5-(5-(3,3-difluorocyclobutyl)-1,2,4-oxadiazol-3-yl)-3-fluoro-2-methylphenyl)pyrazolo[1,5-a]pyridine-3-carboxamide], where the note is “class ranges”, the IC50 lay in the range of 1000 to 20000 nM. Same read-out and setting: under `COC(=O)N1CC(c2nc(-c3cc(F)c(C)c(NC(=O)c4cnc5cc(N6CCNCC6)ccn45)c3)no2)C1` [Compound C030, methyl 3-(3-(3-fluoro-4-methyl-5-(7-(piperazin-1-yl)imidazo[1,2-a]pyridine-3-carboxamido)phenyl)-1,2,4-oxadiazol-5-yl)azetidine-1-carboxylate] stands 100 to 1000 nM; under `COC(=O)N1CC(c2coc(-c3cc(F)c(C)c(NC(=O)c4cnc5ccccn45)c3)n2)C1` [Compound C047, methyl 3-(2-(3-fluoro-5-(imidazo[1,2-a]pyridine-3-carboxamido)-4-methylphenyl)oxazol-4-yl)azetidine-1-carboxylate], 100 to 1000 nM; under `COC(=O)N1CCC[C@@H](c2nc(-c3cc(F)c(C)c(NC(=O)c4cnc5ccccn45)c3)no2)C1` [Compound C049, methyl (R)-3-(3-(3-fluoro-5-(imidazo[1,2-a]pyridine-3-carboxamido)-4-methylphenyl)-1,2,4-oxadiazol-5-yl)piperidine-1-carboxylate], 100 to 1000 nM. `COC(=O)N1CC(c2nnc(-c3cc(F)c(C)c(NC(=O)c4cnc5ccccn45)c3)o2)C1` [Compound C044, methyl 3-(5-(3-fluoro-5-(imidazo[1,2-a]pyridine-3-carboxamido)-4-methylphenyl)-1,3,4-oxadiazol-2-yl)azetidine-1-carboxylate] yielded an IC50 (class ranges) of 1000 to 20000 nM.

Under “class ranges”, `Cc1c(F)cc(-c2noc(C3CN(C(=O)OCCN)C3)n2)cc1NC(=O)c1cnc2ccccn12` [Compound C041, 2-aminoethyl 3-(3-(3-fluoro-5-(imidazo[1,2-a]pyridine-3-carboxamido)-4-methylphenyl)-1,2,4-oxadiazol-5-yl)azetidine-1-carboxylate] had an IC50 of no more than 100 nM. Same read-out and setting: under `COC(=O)N1CC(c2cnc(-c3cc(F)c(C)c(NC(=O)c4cnc5ccccn45)c3)o2)C1` [Compound C051, methyl 3-(2-(3-fluoro-5-(imidazo[1,2-a]pyridine-3-carboxamido)-4-methylphenyl)oxazol-5-yl)azetidine-1-carboxylate] stands 1000 to 20000 nM. Take `CC(=O)N1CCN(c2ccc3ncc(C(=O)Nc4cc(-c5noc(C6CC(F)(F)C6)n5)cc(F)c4C)n3c2)CC1` [Compound C038, 6-(4-acetylpiperazin-1-yl)-N-(5-(5-(3,3-difluorocyclobutyl)-1,2,4-oxadiazol-3-yl)-3-fluoro-2-methylphenyl)imidazo[1,2-a]pyridine-3-carboxamide]: the concentration for half-maximal inhibition (IC50) (class ranges) was no more than 100 nM. With `Cc1c(F)cc(-c2noc(C3CC(F)(F)C3)n2)cc1NC(=O)c1cnc2ccccn12` [Compound C001, N-(5-(5-(3,3-difluorocyclobutyl)-1,2,4-oxadiazol-3-yl)-3-fluoro-2-methylphenyl)imidazo[1,2-a]pyridine-3-carboxamide], for the setting “class ranges”, the half-maximal inhibitory concentration (IC50) fell in the range of 1000 to 20000 nM.

For the setting “class ranges”, `Cc1c(F)cc(-c2noc([C@@H]3C[C@H]3F)n2)cc1NC(=O)c1cnc2cc(N3CCOCC3)ccn12` [Compound C050, N-(3-fluoro-5-(5-((1S,2R)-2-fluorocyclopropyl)-1,2,4-oxadiazol-3-yl)-2-methylphenyl)-7-morpholinoimidazo[1,2-a]pyridine-3-carboxamide] registered an IC50 of 100 to 1000 nM. On the same count and under the same terms, as for `CCOC(=O)N1CC(c2nc(-c3cc(F)c(C)c(NC(=O)c4cnc5ccccn45)c3)no2)C1` [Compound C023, ethyl 3-(3-(3-fluoro-5-(imidazo[1,2-a]pyridine-3-carboxamido)-4-methylphenyl)-1,2,4-oxadiazol-5-yl)azetidine-1-carboxylate], the figure is 100 to 1000 nM; as for `COC(=O)N1CC(c2nc(-c3cc(F)c(C)c(NC(=O)c4cnc5ccc(OC)cn45)c3)no2)C1` [Compound C027, methyl 3-(3-(3-fluoro-5-(6-methoxyimidazo[1,2-a]pyridine-3-carboxamido)-4-methylphenyl)-1,2,4-oxadiazol-5-yl)azetidine-1-carboxylate], 100 to 1000 nM. Same read-out and setting: as for `COC(=O)N1CC[C@@H](c2nc(-c3cc(F)c(C)c(NC(=O)c4cnc5ccccn45)c3F)no2)C1` [Compound C053, methyl (R)-3-(3-(2,5-difluoro-3-(imidazo[1,2-a]pyridine-3-carboxamido)-4-methylphenyl)-1,2,4-oxadiazol-5-yl)pyrrolidine-1-carboxylate], the figure is 1000 to 20000 nM; as for `COC(=O)N1CC(c2nc(-c3cc(F)c(C)c(NC(=O)c4cnc5cc(C#N)ccn45)c3)no2)C1` [Compound C035, methyl 3-(3-(3-(7-cyanoimidazo[1,2-a]pyridine-3-carboxamido)-5-fluoro-4-methylphenyl)-1,2,4-oxadiazol-5-yl)azetidine-1-carboxylate], 1000 to 20000 nM; as for `Cc1c(F)cc(-c2noc(C3CC(F)(F)C3)n2)cc1NC(=O)c1cnc2ccc(N3CCNCC3)cn12` [Compound C025, N-(5-(5-(3,3-difluorocyclobutyl)-1,2,4-oxadiazol-3-yl)-3-fluoro-2-methylphenyl)-6-(piperazin-1-yl)imidazo[1,2-a]pyridine-3-carboxamide], 100 to 1000 nM. On the same count and under the same terms, under `Cc1c(F)cc(-c2noc(C3CC(F)(F)C3)n2)cc1NC(=O)c1cnc2ccc(N3CCOCC3)cn12` [Compound C007, N-(5-(5-(3,3-difluorocyclobutyl)-1,2,4-oxadiazol-3-yl)-3-fluoro-2-methylphenyl)-6-morpholinoimidazo[1,2-a]pyridine-3-carboxamide] stands 100 to 1000 nM.

For the origin of these results see US20250313556A1, “CERTAIN CHEMICAL ENTITIES, COMPOSITIONS, AND METHODS” (MRJA THERAPEUTICS, INC., priority 2022, published 2025).
